What was measured:
chromaffin cells = assay: Inhibition of Ca2+-induced catecholamine ([3H]noradrenaline) release in digitonin-permeabilized chromaffin cells; format: cell-based, bovine
Description: Chromaffin cell cultures were prepared from bovine adrenal glands by collagenase digestion and then separated from debris and erythrocytes by centrifugation. Briefly, the cells were maintained in monolayer cultures and used between the third and sixth day after plating. All the experiments were carried out at 37°C. Secreted neurotransmitter [^3H]noradrenaline was determined in cells permeabilized with digitonin. Neurotransmitter (catecholamines) release was stimulated by addition of 10 µM) Ca^2+.
To evaluate the enhancement of this activity of encapsulated Acetylhexapeptide-8, the inhibitory capacity on Ca^2+-induced catecholamine release was measured in digitonin-permeabilized chromaffin cells culture.
In particular, the activity of the free peptide free (acetylhexapeptide-8), the peptide encapsulated in Policaprolactone-Chitosan (Acetylhexapeptide-8@PCL-Chi) and the peptide encapsulated with sodium hyaluronate (HA) in PCL-Chi-HA (Acetylhexapeptide-8-HA@PCL-Chi-HA) (present invention) were compared.

[1] = test system: women with facial wrinkles; assay: Clinical anti-wrinkle study, preorbital area, 3D skin topography / confocal microscopy of silicone impressions; format: in vivo; conditions: O/W emulsion twice a day; for Wrinkles reduction (%) 4 wrinkles: at 4 weeks
Description: The clinical study was conducted on 40 women with facial wrinkles between 50 and 60 years of age. All volunteers were healthy and without any systemic or skin disease.
Wrinkles were measured using a topographic skin measurement device, a Bio 3D Structure Light Scanner technology, which performs a 3D reconstruction of the image in silicone (ANTERA 3D® and software (Miravex, Ireland).
The patients were divided into two groups, which applied the assigned O/W emulsions twice a day for two months. One group (1) applied a free Acetylhexapeptide-8 emulsion on one side of the preorbital area and an emulsion with Acetylhexapeptide-8 encapsulated in PCL and chitosan on the other side. The second group applied an O/W emulsion with free HA on one area of a preorbital area and another of the cosmetic composition of the present invention (Acetylhexapeptide-8, HA, PCL and chitosan) on the contralateral side. All participants were asked not to use any cosmetics containing ingredients that could interfere with the wrinkle status of the skin during the study period, nor were they subjected to exposure to direct sunlight.
Before the first application, at 4 and 8 weeks of use, silicone impressions were taken and processed by confocal laser scanning microscopy to evaluate the progress of wrinkles. The maximum depth values within the analysis area were taken as representative values of wrinkles, and the percentage reduction of these values before and after application were calculated as the percentage improvement of skin wrinkles.
In this study, measurements of the main roughness parameters such as mean roughness volume and area affected by roughness were obtained. The average roughness volume is the average (three-dimensional) dimension of the depression of the cutaneous microrelief measured in mm^3. The area affected by roughness is the roughness portion of the measured skin area (two-dimensional, measured in mm^2). The improvement was calculated as the percentage change between the images taken before the treatments and two months […].
Reflection mode confocal microscopy and three-dimensional analysis were used to evaluate the different parameters.
For this purpose, the 40 female volunteers were divided into two groups, and each group applied twice daily for 2 months two assigned emulsions, one to each eye in the same preorbital area. Before treatment, at 4 and 8 weeks, the decrease in wrinkles was quantified by 3D images analyzed by confocal microscopy.

[2] = Cutaneous penetration by Franz cell diffusion, HPLC quantification in the receptor solution; format: in vitro ADME; conditions: 20 h, pig skin, 32°C, receptor PBS pH 7.4, 25 µl applied
Description: Cutaneous penetration of free acetylhexapeptide-8 and encapsulated acetylhexapeptide-8 (nanocapsule of the present invention) was determined by means Franz cells diffusion. The pig skin samples were used to carry out the experiment, cut into circles 2.5 cm in diameter. The skin was assembled on the receptor compartment of a Franz diffusion cell system with the stratum corneum facing up towards the donor compartment. As a solution for the receptor, 18 ml of phosphate buffered saline (PBS) pH 7.4 stirred by a magnetic rod at 700 rpm were utilized. A 25 µl aliquot of each of the assay formulations was applied on the pig skin. The Franz diffusion cells were kept at 32°C, and after 20 h of incubation, the receptor solution was analyzed by HPLC (I=220 nm) to quantify the amount of acetylhexapeptide-8 was penetrated the skin. Triplicates of the assay were done.
HPLC analysis was performed utilizing a Waters 996 instrument with diode array detector equipped with Waters 2695 separations module and Millenium software; a C18 4.6x150 mm 5 µm reversed phase column by Waters was used. […]
The quantification of acetylhexapeptide-8 in the fluid (PBS) of the receptor chamber was evaluated through HPLC at 20 hours after application of 25 µL of the two solutions on the pig skin.

[3] = Moisturizing efficacy: transepidermal water loss (TEWL) study by corneometry on forearms of volunteers; format: in vivo; conditions: forearm, women 45-50 years
Description: The transpidermal water loss (TEWL) study by corneometry was performed to compare the moisturizing activity of the composition of the present invention and its main components.
The assay was carried out on 20 women between the ages 45 and 50 years. None of the patients had suffered or had any medical history or relevant skin pathologies.
The volunteers were divided into four groups. Daily, for 7 days, the assigned sample was applied to one of the forearms of each group (group 1 sample with free sodium hyaluronate, group 2 sample with free Acetylhexapeptide-8, group 3 sample with free sodium hyaluronate and Acetylhexapeptide-8 and group 4 sample with complete encapsulation (Acetylhexapeptide-8, sodium hyaluronate, polycaprolactone and chitosan). The opposite forearm of each volunteer was the control.
Measurements were taken 2 hours and 7 days after the first application. Epidermal capacitance was evaluated using a CM 825 Corneometer, which allows quantification of surface humidity variations. Measurements were taken in an air-conditioned room (temperature 23°C, relative humidity 34.5%). […]
This trial compared the moisturizing capacity of free HA, free Acetylhexapeptide-8, free HA+Acetylhexapeptide-8 and the composition of the present invention (Acetylhexapeptide-8-HA@PCL-Chi-HA) by measuring the skin loss of water on the forearm of the volunteers analyzed. […]

Acetylhexapeptide-8 [Free Acetylhexapeptide-8]
decrease in total catecholamine exocytosis / inhibition of the release of neurotransmitters (chromaffin cells; Ca2+-induced release, versus control): 20%
Cathecolamine release (%) (chromaffin cells; stimulated with 10 µM Ca2+, 37°C, control = 100): 80%
Wrinkles reduction (%) 4 wrinkles [1]: 20.5%
Wrinkles reduction (%) 4 wrinkles ([1]; listed as free Acetylhexapeptide-8): 20%
Wrinkles reduction (%) 8 wrinkles ([1]; at 8 weeks (end of treatment)): 30%
Decrease area affected by roughness (%) ([1]; at 8 weeks): 31.2%
Roughness volume decrease (%) ([1]; at 8 weeks): 35%
% Penetration [2]: 14%
Tewl After 2 hours ([3]; 2 hours after first application, control 16): 15.8 g/m^2h
Tewl After 7 days ([3]; after 7 days of daily application, control 17): 16.5 g/m^2h
